The values below come from PMC6195765 (Organic letters, 2018).

Molecules are shown by their SMILES.

In this assay the test system is PvfC. Nature of the assay: ATP-[…]PPi exchange assay. It is filed as biochemical, Pseudomonas entomophila. To be noted: ATP co-substrate; adenylation domain.

Turning to `CC(C)[C@H](N)C(=O)O` [L-Val], the Km came out at 3.4 ± 0.7 mM.
